Reference: BindingDB's records for patent US20250002452 (Icagen, 2025)

Target: Potassium voltage-gated channel subfamily KQT member 2 (Homo sapiens, UniProt O43526)
Test: SyncroPatch 384 (Nanion) High Throughput Electrophysiology Assay
From the text: Solutions were of the following composition:Earle's balanced salt solution (in mM): 135 NaCl, 5.4 KCl, 5 Glucose, 2 CaCl2), 1 MgCl2, 5 HEPES, pH 7.4. Seal enhancer solution (in mM): 90 NaCl, 3 KCl, 35 CaCl2), 10 MgCl2, 10 HEPES, pH 7.4. Extracellular recording solution (in mM): 71 NaCl, 70 NMDG, 13 KCl, 5 Glucose, 2 CaCl2), 1 MgCl2, 10 HEPES, pH 7.4. Intracellular recording solution (in mM): 130 KF, 20 KCl, 4 EGTA, 10 HEPES, 2 EDTA, 0.01 Escin, pH 7.2.

Chain of Potassium voltage-gated channel subfamily KQT member 2 (O43526 whole entry): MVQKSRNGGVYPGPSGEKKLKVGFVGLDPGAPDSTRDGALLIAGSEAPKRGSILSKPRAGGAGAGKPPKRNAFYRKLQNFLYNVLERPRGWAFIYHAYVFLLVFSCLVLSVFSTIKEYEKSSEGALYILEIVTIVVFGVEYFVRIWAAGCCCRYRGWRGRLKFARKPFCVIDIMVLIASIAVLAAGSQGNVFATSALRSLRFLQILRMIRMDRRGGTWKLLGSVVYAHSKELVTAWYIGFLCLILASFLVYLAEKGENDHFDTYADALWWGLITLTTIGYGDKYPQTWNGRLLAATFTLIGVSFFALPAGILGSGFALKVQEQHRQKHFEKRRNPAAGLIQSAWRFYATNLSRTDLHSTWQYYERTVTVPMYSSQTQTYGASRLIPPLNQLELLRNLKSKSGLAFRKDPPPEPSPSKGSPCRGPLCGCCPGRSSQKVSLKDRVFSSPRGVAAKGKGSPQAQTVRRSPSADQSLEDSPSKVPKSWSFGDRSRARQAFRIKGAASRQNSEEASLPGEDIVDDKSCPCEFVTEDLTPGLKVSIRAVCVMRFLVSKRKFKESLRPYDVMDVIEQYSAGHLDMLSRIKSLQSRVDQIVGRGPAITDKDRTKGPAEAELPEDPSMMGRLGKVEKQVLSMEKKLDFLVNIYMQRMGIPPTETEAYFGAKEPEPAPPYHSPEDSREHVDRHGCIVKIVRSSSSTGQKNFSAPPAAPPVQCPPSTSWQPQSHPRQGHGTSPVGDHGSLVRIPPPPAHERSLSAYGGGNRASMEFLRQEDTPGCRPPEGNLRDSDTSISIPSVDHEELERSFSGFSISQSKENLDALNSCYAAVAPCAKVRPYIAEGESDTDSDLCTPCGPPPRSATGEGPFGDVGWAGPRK

SMILES: CC(NC(=O)NC12CC(F)(C1)C2)c1cccc(OC(F)F)c1 (stereo unspecified) [US20250002452, Example 38]
- EC50: 180 nM
